Reference: patent US7049321B2, “Methods and pharmaceutical compositions for treatment of central and peripheral nervous system disorders and compounds useful therefor” (Israel Institute for Biological Research, priority 2002, dated 2006)

How the values were obtained:
M1 mAChR = molecular target: T1, M1 mAChR (Rattus norvegicus, UniProt P08482); test: α-APPs secretion in cell cultures stably transfected with the M1 mAChR; assay type: cell-based; conditions: for Emax: read-out: APPs levels, % of maximal effect of carbachol, at 100 μm
T1 construct: expressed in transfected cells; elsewhere rat pheochromocytoma cells
T1 sequence (P08482 1-460): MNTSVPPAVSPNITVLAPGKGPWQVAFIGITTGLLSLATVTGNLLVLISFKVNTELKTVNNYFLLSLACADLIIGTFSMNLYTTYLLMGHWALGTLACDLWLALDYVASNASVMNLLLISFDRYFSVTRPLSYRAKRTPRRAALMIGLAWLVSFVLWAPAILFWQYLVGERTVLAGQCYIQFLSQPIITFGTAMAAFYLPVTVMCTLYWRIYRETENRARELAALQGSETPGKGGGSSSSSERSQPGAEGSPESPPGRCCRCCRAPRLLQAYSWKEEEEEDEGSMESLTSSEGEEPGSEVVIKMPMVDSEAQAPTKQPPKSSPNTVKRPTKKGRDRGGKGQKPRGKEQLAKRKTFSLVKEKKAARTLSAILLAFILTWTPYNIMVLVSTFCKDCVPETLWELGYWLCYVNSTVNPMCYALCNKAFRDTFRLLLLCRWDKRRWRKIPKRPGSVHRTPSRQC
Experimental: Cells were plated in 6 well culture plates and used at the age of 3–5 days after plating. […] Cells exposed to medium alone are referred as controls.
Cell supernatants were collected into Eppendorff tubes containing a cocktail of protease inhibitors (5 units/ml aprotinin, […], […] and 10^−4M Phenylmethylsulfonylfluoride (PMSF, a protease inhibitor); Sigma, USA). The collected media were concentrated with Centricon tubes (Amicon, Beverly, Mass., USA) and kept frozen for α-APPs secretion determination. Equal amounts of protein (50–100 μg) were loaded and separated on 10% sodium dodecyl sulfate-polyacrylamide gel electrophoresis (SDS-PAGE). Followed by western blotting onto nitrocellulose membrane, blocked by fat-free milk, and probed for 24 hours at 4° C., with anti-Alzheimer's precursor protein, A4 monoclonal antibody 22C11 (0.25 μg/ml; Boehringer Mannheim, Germany). The nitrocellulose membranes were washed and incubated for 2 hours at room temperature with peroxidase-linked goat anti-mouse IgG antibodies (Jackson Immunoresearch, USA), followed by extensive washout and staining with enhanced chemiluminescence detection system (Amersham). Quantitative evaluation of the immunoreactive bands, on the exposed films, was performed by video-imaging densitometry (Gel-aid software; Galai Co., Israel). APPs levels were expressed as x-fold increase over basal levels.

tau proteins = test: tau phosphorylation, AT8 immunoblot; assay type: cell-based; conditions: 100 μM; to the control level
Description: Following the experimental design of Sadot et al., J. Neurochem. […] By linking an M1 agonist to an antioxidant moiety tau phophorylation may be decreased, providing a new therapeutic strategy in a variety of CNS disease states due to combined damage due to oxidative stress and tau hyperphosphorylation.

[1] = tested on: Rat pheochromocytoma cells transfected with M1 mAChR; test: Neurite outgrowth response; assay type: cell-based; conditions: blocked by atropine
Experimental: Rat pheochromocytoma cells transfected with M1 mAChR cells were grown as described in Gurwitz et al, (NeuroReport 6, 485,1995). For determination of neurite outgrowth, cells plated in six-well plates were used 3–5 days after-plating. Growth factors were added 1 day after plating and muscarinic agonists were added for the last 24 hrs.
Cells were observed under an inverted microscope. The percent of cells with neurite longer than cell diameter were scored in three random fields of several hundred cells from each well. Results were expressed as a percent of cells with neurites. Treatments were performed in triplicate cells. Both NGF (50 ng/ml) and EGF (100 ng/ml) were added 1 day after plating. Muscarinic agonists were added 24 hours before scoring.

[2] = tested on: Rat pheochromocytoma cells transfected with M1 mAChR; assay type: cell-based; conditions: β-A25-35 (10 & 20 μM)
Experimental: Confluent rat pheochromocytoma cells transfected with the M1 mAChR cultures were detached with trypsin, washed and plated in 24-well, 6-well, 60-mm or 100-mm plates that were precoated with rat tail collagen (Sigma, Israel). Several experiments were performed in serum-free medium. For 3-(4,5-dimethylthiazol-2-yl)-2,5-diphenyl-tetrazolium bromide (MTT) assay, cells (1.5×10^4) were plated in 96-well collagen-precoated plates, in serum-free medium, with or without various drugs for 24 hours. For differentiation, cells were grown in the presence of 1% FCS and 1% HS, with addition of 50 ng/ml NGF for 7 days, to cause full differentiation. […] After 7 days, cells were washed and the medium was either replaced to serum-free, or cells were detached and replated in serum-free medium. Cells in serum-free medium were treated either with Aβ peptides that were previously “aged” or with H2O2. Tested compounds were added together with the insults for the indicated time, unless otherwise stated.
Cells were plated in 96-well plates in 100 μl medium. After exposure to various treatments, 10 μl of 5 mg/ml MTT [3-(4,5-dimethylthiazol-2-yl)-2,5-diphenyl-tetrazolium bromide; Sigma, Israel] solution in phosphate-buffered saline (PBS) was added to each well. Plates were incubated for 2 hrs at 37° C. followed by hydrocholoric acid-isopropanol addition (100 μl of 0.04N HCl/isopropanol). Plates were read using ELISA reader at a wavelength of 570 nm.
The MTT assay measures primary early changes within the cells, reflecting the integrity of the electron transport chain and provides a readout of cellular redox activity. This test is a specific, early indicator of the mechanism of β-amyloid-mediated cell death and can be used to detect rapid inhibitory response.

trihexyphenidyl rats = test: Passive avoidance in trihexyphenidyl-treated rats; assay type: in vivo, Wistar rats; conditions: 24 h
Description: Trihexyphenidyl is a selective M1 muscarinic antagonist that crosses the blood brain barrier and induces memory and learning impairments (Bymaster et al. J Pharmacol Exp Ther 267: 16–24, 1993. Roldan et al Neurosci. Lett. 230: 93–96, 1997; Kimura et al Brain Res. 834: 6–12, 1999).
Naive Wistar rats were used in the experiments below. The passive avoidance (PA) task is comprised of training (acquisition) phase and a retention phase. In the training procedure each rat was individually placed in the small illuminated compartment and after 60 sec. of familiarization/adaptation, the door to the large compartment was opened and the latency to enter was measured (Initial Latency). Immediately following entry into the dark compartment, the door was closed and inescapable foot shock (0.6 mA for 3 sec) was delivered through the grid floor. A cutoff point of 180 sec was used for initial latency. […] After the acquisition trial the rat was returned to its home cage. Retention of the passive avoidance task was measured 24 h later, by again placing the rat in the light compartment and after a 60 sec adaptation interval, the door was opened and the latency to re-enter the dark compartment was measured. A cutoff point of 300 sec was used for retention latency.

ApoE = ApoE synthesis and secretion in primary type 1 astrocytes; assay type: cell-based, rat; conditions: up to 96 hrs
Experimental: Primary cultures of type 1 astrocytes were derived from the cortex of Sprague Dawley rats. The compounds tested were dissolved in the culture media and added to cells for 24, 48, 72 and 96 hrs. Media was then removed and kept frozen until ApoE protein levels were evaluated by immunoblot analysis as described in Poirier et al Neuroscience 55: 81–90 (1993). Alternatively the methods of Cedazo-Minuez et al [Neurosci 105: 651–661, 2001} may be employed.

[3] = tested on: rat primary cerebral cortex cell cultures; test: APPs secretion in rat primary cortical cell cultures; assay type: cell-based; conditions: 100 μm
[4] = tested on: rat primary hippocampal cell cultures; test: APPs secretion in rat primary hippocampal cell cultures; assay type: cell-based; conditions: 100 μm
C57BL6J mice = test: Morris water maze in normal hippocampus mice; assay type: in vivo; conditions: for Reversal test, escape latency: AF150(S) 0.5 mg/kg; for Training, path length: AF150(S) only the higher dose; for Reversal test, swimming speed: AF150(S)-0.5 mg/kg, AF267B-1 mg/kg, rivastigmine, nicotine; for Training, swimming speed: mouse, in vivo
Experimental: (§1) Each group of mice was randomly divided into 7 treatment groups (n=12-14/group). […] All tested compounds and saline were administered once a day for 4 days before starting the behavioral testing, and then for the duration of the 5-day experiment, 30 minutes before testing.
(§2) Training: Each mouse was trained for four consecutive days, four trials (one block) per day, in which the platform position remained constant and was located in the center of the southeast quadrant of the pool. Within each block of four trials, each mouse started at each of the starting locations, but the sequence of locations was randomly selected. A trial consisted of placing a mouse by hand into the water facing the wall of the pool at one of four starting locations, north, south, east or west, around the pool's perimeter. Escape latency (the time to find the platform), path length (the distance traveled by the mouse) and speed (the swimming rate of the mouse) were recorded on each trial by the monitoring system.
(§3) For each mouse, the path length, escape latency, and swimming speed of the four trials on each of the 4 training days were grouped into blocks (one block for each day). […] Specific comparisons were performed, using the simple main effects contrasts acalysis, which is specifically suited for testing significant interactions.
(§4) Transfer test. During trial No. 17, on the fourth day, the platform was entirely removed from the pool (a probe trial). In this trial, the mouse was placed into the water for a limited period (30 s), and its spatial bias was measured by recording the relative distribution of escape latency and path length over the four quadrants of the pool.
(§5) Reversal test. During trials 18–21, on the fifth day, the platform position was changed to the northwest quadrant, opposite to the training quadrant. Thus, during reversal learning, the platform location was moved relative to the configuration of objects within the room, but the pool occupied the same place within the room throughout the entire experiment. Testing of the rats and measures taken were the same as in training.
(§6) For each mouse, the escape latency, path length and swimming speed of the reversal test (trials No. 18–21) were grouped into one block.

C57BL/10SnJ (B10) mice = test: Morris water maze in small hippocampus mice; assay type: in vivo; conditions: for Training, escape latency: 0.5 and 1 mg/kg i.p. (rivastigmine, nicotine 1 mg/kg); for Training, path length: AF150(S) both doses, AF267B the higher dose; for Reversal test, escape latency / Training, swimming speed / Transfer test, spatial bias: mouse, in vivo
Experimental: C57BL/10SnJ (B10) mice were selected due to their small hippocampi and decreased number of hippocampal pyramidal neurons; the cell loss seemed to be associated with poor spatial learning.
as §1, §2, §3, §4, §5, §6

Compound: CCC1SC2(CCN(C)CC2)NC1=O (racemic) [AF267, 2-ethyl-8-methyl-1-thia-4,8-diaza-spiro[4.5]decan-3-one]
- α-APPs secretion, comparison in words (M1 mAChR): AF267B is more efficacious and more potent than its racemate

Compound: CCC1SC2(CCN(C)CC2)N(C(=O)CCc2c[nH]c3ccccc23)C1=O (racemic) [AF704, 2-Ethyl-4-(3-1H-indol-3-yl-propionyl)-8-methyl-1-thia-4,8-diaza-spiro[4.5]decan-3-one]
- tau phosphorylation (AT8) (tau proteins): induce dephosphorylation of tau proteins
- Neurotrophic effect [1]: neurotrophic
- Emax (M1 mAChR): 50%
- Protection against β-A25-35-induced cytotoxicity [2]: more effective than carbachol and AF267B
- Retention latency (trihexyphenidyl rats; 0.1 mg/kg, po): 214.70 ± 36.63 s
- Retention latency (trihexyphenidyl rats; 0.5 mg/kg p.o.): 283.50 ± 17.39 s
- Retention latency (trihexyphenidyl rats; 1 mg/kg p.o.): 274.44 ± 26.97 s

Compound: CC1OC2(CS1)CN1CCC2CC1 (centres unmarked) [AF102B, reference compound]
- ApoE production (ApoE): inactive
- Retention latency (trihexyphenidyl rats; 1 mg/kg p.o.): 234.4 ± 35.3 s

Compound: CC[C@@H]1SC2(CCN(C)CC2)N(S(=O)(=O)c2ccc(F)cc2)C1=O [AF700, (S)-2-Ethyl-4-(4-fluoro-benzenesulfonyl)-8-methyl-1-thia-4,8-diaza-spiro[4.5]decan-3-one]
- Neurotrophic effect [1]: neurotrophic
- Emax (M1 mAChR): 50%
- Protection against β-A25-35-induced cytotoxicity [2]: more effective than carbachol and AF267B

Compound: CCC1SC2(CCN(C)CC2)N(CCc2c[nH]c3ccccc23)C1=O (centres unmarked) [AF703, 2-Ethyl-4-[2-(1H-indol-3-yl)-ethyl]-8-methyl-1-thia-4,8-diaza-spiro[4.5]decan-3-one]
- Protection against β-A25-35-induced cytotoxicity [2]: more effective than carbachol and AF267B

Compound: O=C1CCCN1CC#CCN1CCCC1 [Oxotremorine, oxotremorine, reference compound]
- APPs secretion, activity in words [3]: inactive
- APPs secretion, activity in words [4]: inactive

Compound: CN1CCCC1c1cccnc1 (centres unmarked) [nicotine, reference compound]
- Training, escape latency (C57BL6J mice; 0.5 and 1 mg/kg i.p. (rivastigmine, nicotine 1 mg/kg)): degraded the performance
- Reversal test, escape latency (C57BL6J mice): no significant effect
- Training, path length (C57BL6J mice): no significant effect
- Reversal test, swimming speed (C57BL6J mice): significantly decreased
- Training, swimming speed (C57BL6J mice): significantly decreased the swimming speed
- Training, escape latency (C57BL/10SnJ (B10) mice): no improving effect
- Training, path length (C57BL/10SnJ (B10) mice): no significant effect
- Reversal test, escape latency (C57BL/10SnJ (B10) mice): no significant effect
- Training, swimming speed (C57BL/10SnJ (B10) mice): Neither rivastigmine nor nicotine had any significant effect
- Transfer test, spatial bias (C57BL/10SnJ (B10) mice): partial spatial bias

Compound: CCN(C)C(=O)Oc1cccc([C@H](C)N(C)C)c1 [rivastigmine, reference compound]
- Reversal test, escape latency (C57BL6J mice): no significant effect
- Training, path length (C57BL6J mice): neither AF267B nor rivastigmine had any effect
- Reversal test, swimming speed (C57BL6J mice): significantly decreased
- Training, swimming speed (C57BL6J mice): significantly decreased the swimming speed
- Training, escape latency (C57BL/10SnJ (B10) mice): positively affected
- Training, path length (C57BL/10SnJ (B10) mice): positively affected
- Reversal test, escape latency (C57BL/10SnJ (B10) mice): no significant effect
- Training, swimming speed (C57BL/10SnJ (B10) mice): Neither rivastigmine nor nicotine had any significant effect
- Transfer test, spatial bias (C57BL/10SnJ (B10) mice): complete spatial bias
- α-APPs secretion, comparison in words (M1 mAChR): not effective

Compound: (S)-Ethyl-4-(3-1H-indol-3-yl-propionyl)-8-methyl-1-thia-4,8-diaza-spiro[4.5]decan-3-one [AF704B]
- tau phosphorylation (AT8) (tau proteins): induce dephosphorylation of tau proteins
- Protection against β-A25-35-induced cytotoxicity [2]: more effective than carbachol and AF267B
